Assay results from patent US12678464B2, “Methods for stem cell transplantation” (The UAB Research Foundation, priority 2015, dated 2026).
Values after ≈ are worked out from the molar mass of the structure shown. Where two headings read alike, the source gives them in different places.

What was measured:
haploidentical HCT [1] = details: CTN 0603; cited from earlier work
haploidentical HCT [2] = details: at 1 year; cited from earlier work
[3] = LexiComp monograph; cited from earlier work
[4] = constituted, cited from earlier work
clinical = details: human, in vivo, intravenous, 50 mg/kg
[5] = cited from earlier work
[6] = 1-octanol/water (pH 7.4) buffer solution; cited from earlier work
[7] = cited from earlier work; remark: listed apart in the source

SMILES	relapse rate (haploidentical HCT [1]) [%]	relapse rate (haploidentical HCT [2]) [%]	elimination half-life [3] [h]	physically and chemically stable ([4]; refrigerated)	physically and chemically stable ([4]; room temperature) [h]	half-life (clinical) [h]	solubility in acetone ([5]; acetone, in words)	solubility in ethanol ([5]; in words)	solubility in methanol ([5]; in words)	solubility in an acidic medium ([5]; pH 3.6) [µg/mL]	solubility in water ([5]; pH 7.4) [µg/mL]	solubility in water ([5]; water, in words)	apparent partition coefficient [6]	pKa ([7]; morpholino group)	pKa ([7]; phenolic group)	solubility in chloroform ([5]; chloroform, in words)
O=P1(N(CCCl)CCCl)NCCCO1 (stereo not shown) [Cyclophosphamide, 2-[bis(2-cholorethyl)amino]tetrahydro-2H-1,3,2-oxazaphosphorine 2-oxide monohydrate]	45	51	3 to 12	six	24	60	–	–	–	–	–	–	–	–	–	–
COc1c(C)c2c(c(O)c1C/C=C(\C)CCC(=O)OCCN1CCOCC1)C(=O)OC2 [Mycophenolate mofetil, 2-morpholinoethyl (E)-6-(1,3-dihydro-4-hydroxy-6-methoxy-7-methyl-3-oxo-5-isobenzofuranyl)-4-methyl-4-hexenoate]	–	–	–	–	–	–	freely soluble	sparingly soluble	soluble	4270 (≈ 9.85 mM)	43 (≈ 0.0992 mM)	slightly soluble	238	5.6	8.5	–
C=CC[C@@H]1/C=C(\C)C[C@H](C)C[C@H](OC)[C@H]2O[C@@](O)(C(=O)C(=O)N3CCCC[C@H]3C(=O)O[C@H](/C(C)=C/[C@@H]3CC[C@@H](O)[C@H](OC)C3)[C@H](C)[C@@H](O)CC1=O)[C@H](C)C[C@@H]2OC [Tacrolimus]	–	–	–	–	–	–	–	freely soluble	very soluble	–	–	practically insoluble	–	–	–	very soluble
